According to patent US7498445B2, “Thiazole-based nitric oxide donors capable of releasing two or more nitric oxide molecules and uses thereof” (priority 2004, dated 2009):
Entries after “also recorded” stand apart in the source; their conditions may differ.

Key:
[1] = system: c-GMP in slices of thoracic aorta of rats; assay: Cyclic-GMP measurement in aortic rat tissue (radioimmunoassay); assay type: cell-based; conditions: in words; for levels of cGMP as compared with GTN: isolated rat aorta, FIGS. 25, 27, 33
Experimental: GTN (10^−6 M) was added to the chamber and, 1 minute after exposure to the drug, rings (usually 3-5) were taken, wrapped with aluminum foil and immediately frozen in liquid nitrogen for storage. Control sample group was treated with the vehicle solution only. At the time of analysis, rings were thawed, blotted over a dry gauzed and weighted. A known weight of tissue was homogenized in 2 ml ice-cold modified Hank's balanced salt solution containing (in gram/liter) NaCl 8; KCl 0.4; glucose 1; KH2PO4 0.06; Na2HPO4 0.047; Phenol red 0.017 and further containing 25 mM EDTA (disodium salt). The homogenate was centrifuged at 4000 g (force units) for 10 minutes at 2-4° C. and the supernatant was thereafter transferred into fresh pre-cooled test tube containing 1 ml of acetonitrile. The tubes were vortex mixed for a few seconds and subsequently centrifuged at 4000 g for 5 minutes at 2-4° C., to remove the precipitated protein. Each supernatant was transferred into a clean test tube and evaporated to dryness under a stream of nitrogen at 55° C. The dry residue was reconstituted with 10 volumes of Tris-EDTA buffer pH 7.5 (0.05 M Tris containing 4 mM EDTA). Aliquots of 100 μl of the reconstituted solution in duplicate were used for c-GMP measurements using Amersham RIA kit, as is described in Haj-Yehia & Benet [Pharmacology, 1995, 273, 1, pp. 94-100]. Standard curves were plotted with six concentrations (0, 0.5, 1, 2, 4 and 8 pmoles of c-GMP per tube).
The NO-tolerance effect of GTN and NO-donor compounds according to the present invention was measured by following the production of c-GMP in slices of thoracic aorta of rats. Thus, the production of c-GMP was measured as described in the methods section above for the reference NO-donor compound GTN, and for the NO-donors of the present invention Pet-2, Pet-3, Pet-7, Pet-8, Pet-10, Pet-12, Pet-24, Pet-59, Pet-147, Pet-149, Pet-152, Pet-154 and Pet-155.

[2] = system: isolated rat aorta; assay: In vitro vasorelaxation of epinephrine-contracted rat aortic rings (CCRC); assay type: cell-based; conditions: isolated rat aorta pre-treated in vitro with 1 μM epinephrine; for vasorelaxation effect as compared with glyceryltrinitrate: in words
Description: Male Sprague Dawley rats were anaesthetized using intraperitoneal injection of ketamine and xylazine (50 and 10 milligram per kilogram, respectively) and the thoracic aorta, the large upper portion of the descending aorta, starting at the caudal border of the chest bone, was removed thereafter, while carefully removing the paraadventetial tissue surrounding the vessel. Aortae were cut into rings of 4-5 millimeters and mounted onto the tissue path. The path buffer (Krebs-bicrbonate) was constantly gassed with carbogen and maintained at 37° C. The rings were preloaded under 2 g tension and equilibrated for 90 minutes, while refreshing the buffer every 15 minutes. After stabilization, the rings were contracted with epinephrine (1 μM). Cumulative Concentration—Response Curves (CCRC) were measured for the vasorelaxing effect induced by adding various concentrations, ranging from 10^−10 M to 10^−5 M of Pet-2, Pet-3, Pet-7, Pet-8, Pet-12, Pet-24, Pet-43, Pet-59, Pet-147, Pet-152 and Pet-154, and glyceryltrinitrate (GTN), according to the procedure described in Feelich et al., Molecular Pharmacology, 56:243-253 (1999), The vehicle, which was used for this experiment was water:ethanol:propyleneglycol at proportional ratio of 1:1:1.
The vasorelaxing effect of the thiazole-derived NO-donors according to the present invention was measured on slices of thoracic aorta of rats contracted with epinephrine, as described hereinabove.

[3] = system: cyclic-GMP in isolated aorta of rats pre-treated in vivo; assay: Induction of in vivo nitrate tolerance: cGMP in aorta of rats infused for 16 hours; design: species or system rat; conditions: rats infused 200 μg/hour for 16 hours, aorta then exposed to 1 μM; in words
Experimental: For c-GMP levels and tolerance development, the rat's thoracic aorta was isolated after exposure to the tested compound in vivo, and measured as described above in the in vitro assays.
Male Sprague Dawley rats (220 to 250 grams) were housed under constant temperature and humidity conditions. Light was maintained at a 12/12 light dark cycle. Except for 12 hours before the experiment, when food fasting was initiated, all rats had free access to standard rat pellet diet and tap water. The animals were anesthetized by intraperitoneal injection of ketamine and xylazine combination (50 and 10 milligram per kilogram, respectively). […] The catheters were filled with normal saline solution containing 1000 IU/ml of heparin and plugged with a metal pin. Catheters were externalized to the back of the neck region and secured by a polyester felt disk.
After implantation, the rats were individually housed until they regained their preoperative weight and appeared healthy (3 to 4 days post-operation). At this time point (day 0), an osmotic mini-pump (Alza Corp., Palo Alto, Calif.) delivering constant volume (10 μl/hour) of vehicle or drug was connected to one of the intravenous catheters.
For inducing tolerance to the tested NO-donor according to the present invention, the animals received 200 μg/hour of the tested compound for 16 hours (short-term-induced tolerance). […]

[4] = system: isolated rat aorta; assay: In vitro induction of tolerance and cross-tolerance: vasorelaxation of pre-exposed rat aortic rings; assay type: cell-based; conditions: in words; for tolerance induction in vitro: rings pre-treated with epinephrine and then with the same compound (0.44 mM) versus control
Experimental: Aortic rings were prepared as described hereinabove, and were exposed to 0.44 mM GTN (vehicle was water:ethanol:propyleneglycol at proportional ratio of 1:1:1) for 1 hour before CCRC construction, to thereby induce tolerance to nitroglycerine. At the end of the tolerance induction period, rings were thrice washed with the path buffer (Krebs-bicrbonate) every 15 minutes for the following hour and then CCRC for vasorelaxation on GTN-induced tolerance rings were constructed for GTN (pretreated versus untreated rings, FIG. 15), in order to verify the ability to induce and measure GTN tolerance induction in vitro Attempted induction of tolerance to the NO-donating compounds of the present invention was performed under the same conditions as for GTN. Thus, in an exemplary experiment, rings were exposed to 0.44 mM solution of Pet-3 in the attempt to induce tolerance for Pet-3. CCRC were then measured for the vasorelaxing effect of Pet-3 on a group of rings which were pre-exposed to Pet-3 as to induce tolerance to Pet-3, and for an untreated control group. The above protocol was repeated with Pet-2, Pet-7, Pet-8, Pet-12, Pet-24, Pet-43, Pet-149 and Pet-152.
Cross-tolerance studies were conducted using the same technique described above for measuring vasorelaxation of aortic rings from rats. Two groups of aortic rings samples were pre-treated with GTN, then one group was measured for vasorelaxation by GTN and the second group for vasorelaxation by Pet-12, an exemplary NO-donor according to the present invention. For the opposite cross-tolerance studies, two groups of aortic rings samples were pre-treated with Pet-12, then one group was measured for vasorelaxation by GTN and the second group for vasorelaxation by Pet-12.

[5] = system: anesthetized hypertensive Sprague-Dawley male rats; assay: Hypotensive effects: mean arterial pressure after iv bolus in phenylephrine-treated rats; assay type: in vivo, rat; conditions: rats pre-treated with phenylephrine, in words
Experimental: Mean arterial pressure (MAP) was monitored and determined during bolus infusion of Pet-2, Pet-3, Pet-7, Pet-8, Pet-12 and Pet-13. Briefly, polyethylene catheters (PE50) were inserted into the carotid artery and into the jugular vein of anesthetized hypertensive Sprague-Dawley male rats (200-300 grams). A blood pressure recorder was placed within the carotid artery. Phenylephrine (0.1 mg) was then injected and the mean arterial blood pressure (MABP) was monitored continuously until a stable baseline was reached. The hypotensive effects of intravenous (iv) bolus doses (0.1 mg of each tested compound) administered intravenously at the jugular vein in minimal volume of vehicle (0.2 ml per dose) were evaluated. Five minutes were allowed between each dose, during which the maximal decrease in MAP was recorded and a dose-response graph comparing the hypotensive effect of the compounds was constructed.

SMILES | levels of cGMP as compared with GTN [1] | vasorelaxation effect as compared with glyceryltrinitrate [2] | tolerance induction in vitro [4] | also measured
Cc1nc(NC(=O)[C@@H](C)c2ccc(CC(C)C)cc2)sc1CCO[N+](=O)[O-] (stereo in doubt) [Pet-152, 2-(4-Isobutyl-phenyl)-N-[4-methyl-5-(2-nitrooxy-ethyl)-thiazol-2-yl]-propionamide] | increased levels of cGMP | superior vasorelaxation effect | – | –
O=[N+]([O-])OCC(CO[N+](=O)[O-])O[N+](=O)[O-] [GTN, glyceryl trinitrate, reference compound] | – | – | tolerance induced by treatment with GTN | level of cGMP following a repeated treatment in vivo (tolerance induction) [3]: tolerance inducing effect; also recorded: decreased; c-GMP level following a repeated treatment ([1]; thoracic aorta of rats): significantly reduced; hypotensive effect on MAP following successive administrations [5]: attenuation in its effect on MAP
Cc1nc(C)c(CCO[N+](=O)[O-])s1 [Pet-3, 2,4-Dimethyl-5-(2-nitrooxy-ethyl)-thiazole] | increased levels of cGMP | superior vasorelaxation effect | absence of tolerance induction | –
Cc1nc(N(C)C)sc1CCO[N+](=O)[O-] [Pet-7, Dimethyl-[4-methyl-5-(2-nitrooxy-ethyl)-thiazol-2-yl]-amine] | increased levels of cGMP | superior | absence of tolerance induction | vasorelaxation effect, fold higher than glyceryltrinitrate [2]: 10 fold
Cc1nc(-c2ccccc2)sc1CCO[N+](=O)[O-] [Pet-8, 4-Methyl-5-(2-nitrooxy-ethyl)-2-phenyl-thiazole] | increased levels of cGMP | superior vasorelaxation effect | – | –
Cc1nc(N)sc1CCO[N+](=O)[O-] [Pet-10, 4-methyl-5-(2-nitrooxy-ethyl)-thiazole-2-ylamine] | increased levels of cGMP | – | – | –
Cc1nc(-c2cccnc2)sc1CCO[N+](=O)[O-] [Pet-12, 3-[4-Methyl-5-(2-nitrooxy-ethyl)-thiazole-2-yl]-pyridine] | – | – | absence of tolerance induction | level of cGMP following a repeated treatment in vivo (tolerance induction) [3]: absence of tolerance induction; also recorded: lack of tolerance induction; cross-tolerance: vasorelaxation in rings pre-treated with GTN ([4]; rat aortic rings pre-treated with epinephrine and then with GTN): absence of tolerance induction effect; also recorded: no effect; cross-tolerance: vasorelaxation in rings pre-treated with Pet-12 ([4]; rat aortic rings pre-treated with epinephrine and then with Pet-12): absence of tolerance induction effect; also recorded: does not evoke tolerance to itself not to GTN
CNc1cncc(-c2nc(C)c(CCO[N+](=O)[O-])s2)n1 [Pet-24, Methyl-{6-[4-methyl-5-(2-nitrooxy-ethyl)-thiazol-2-yl]-pyrazin-2-yl}-amine] | increased levels of cGMP | – | absence of tolerance induction | –
Cc1nc(Nc2nc(C)c(CCO[N+](=O)[O-])s2)sc1CCO[N+](=O)[O-] [Pet-43, Bis-[4-methyl-5-(2-nitrooxy-ethyl)-thiazol-2-yl]-amine] | – | superior vasorelaxation effect | absence of tolerance induction | –
Cc1nc(-c2ccc(C(F)(F)F)cc2)sc1CCO[N+](=O)[O-] [Pet-59, 4-Methyl-5-(2-nitrooxy-ethyl)-2-(4-trifluoromethyl-phenyl)-thiazole] | increased levels of cGMP | superior vasorelaxation effect | – | –
CCNc1nc(C)c(CCO[N+](=O)[O-])s1 [Pet-147, Ethyl-[4-methyl-5-(2-nitrooxy-ethyl)-thiazol-2-yl]-amine] | increased levels of cGMP | – | – | –
Cc1nc(Nc2cccc3ccccc23)sc1CCO[N+](=O)[O-] [Pet-149, [4-Methyl-5-(2-nitrooxy-ethyl)-thiazol-2-yl]-naphthalen-1-yl-amine] | increased levels of cGMP | superior vasorelaxation effect | absence of tolerance induction | –
Cc1nc(NC(=O)c2cccnc2)sc1CCO[N+](=O)[O-] [Pet-154, N-[4-methyl-5-(2-nitrooxy-ethyl)-thiazol-2-yl]-nicotinamide] | increased levels of cGMP | – | – | –
C=CCNc1nc(C)c(CCO[N+](=O)[O-])s1 [Pet-155, allyl-[4-methyl-5-(2-nitrooxy-ethyl)-thiazol-2-yl]-amine] | increased levels of cGMP | superior vasorelaxation effect | – | –
